Experiments:
[1] = tested on: γ-glutamylcysteine transferase
[2] = tested on: γ-glutamylcysteine transferase; assay: KM of γ-glutamylcysteine transferase for its substrates; format: biochemical, Silene cucubalus; settings: 30° C. and pH=7.8

Km [2]	Structure (SMILES)	reversibility of the inhibition ([1]; after removal of EDTA and addition of heavy metal ions)	inhibition in the presence of EDTA ([1]; in the presence of ethylenediaminetetraacetic acid)
	O=C(O)CN(CCN(CC(=O)O)CC(=O)O)CC(=O)O [ethylenediaminetetraacetic acid (EDTA), ethylenediaminetetraacetic acid]	reversible	complete inhibition
1 mM	Cc1c(C)n2c(CSC[C@H](NC(=O)CC[C@H](N)C(=O)O)C(=O)NCC(=O)O)c(C)c(=O)n2c1=O [glutathione S-biman]		
6.8 mM	N[C@@H](CCC(=O)N[C@@H](CS)C(=O)NCC(=O)O)C(=O)O [glutathione]		

From patent US5116749A, “γ-glutamylcysteine transferase” (Consortium fur Elektrochemische Industrie GmbH, priority 1988, dated 1992)
